Laboratory results from patent US20220106304A1, “Transcription Factor BRN2 Inhibitory Compounds as Therapeutics and Methods for Their Use” (The University of British Columbia, priority 2018, published 2022).

What was measured:
BRN2 = molecular target: T1, BRN2 (Homo sapiens, UniProt P20265); test: cell-based; settings: negative = activation; for inhibition at 10 µM: read-out: % BRN2 Inhibition (10 μM), 10 μM compound, 24 hours, 42D^ENZR cells stably expressing BRN2-luciferase reporter; for inhibition at 30 µM: read-out: % BRN2 Inhibition (30 μM), 30 μM compound, 24 hours, 42D^ENZR cells stably expressing BRN2-luciferase reporter
T1 sequence (P20265 1-443): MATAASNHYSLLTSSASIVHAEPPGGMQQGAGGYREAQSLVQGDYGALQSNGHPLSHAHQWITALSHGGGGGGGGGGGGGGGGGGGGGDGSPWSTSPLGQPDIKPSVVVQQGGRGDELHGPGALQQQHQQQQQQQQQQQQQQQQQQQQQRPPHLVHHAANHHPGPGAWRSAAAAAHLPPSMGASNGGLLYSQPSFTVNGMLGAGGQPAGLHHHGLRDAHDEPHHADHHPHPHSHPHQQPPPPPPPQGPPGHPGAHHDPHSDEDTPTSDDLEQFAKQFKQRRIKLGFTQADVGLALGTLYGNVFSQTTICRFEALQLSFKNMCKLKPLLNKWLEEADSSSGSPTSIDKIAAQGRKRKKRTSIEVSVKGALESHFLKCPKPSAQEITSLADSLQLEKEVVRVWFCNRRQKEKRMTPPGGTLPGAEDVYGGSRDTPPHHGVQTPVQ

[1] = tested on: 42D^ENZR cells vs 16D^CRPC cells; test: Cell proliferation specificity, 42D^ENZR cells vs 16D^CRPC cells; format: cell-based; settings: 42D cells express BRN2, 16D cells do not; some also LNCaP; result in words
Procedure: (§1) Plate 42DENZR (˜7000 cells per well) and 16D^CRPC (˜5000 cells per well) cells in 96 well plate with a volume of 100 μL per well. • 2. Next day 1 mL aliquots of media are combined with 3× the desired concentration of compounds. The aliquots are vortexed and 50 μL of each 3× concentration is added to the 100 μL of media in each well to give the ix desired concentration.
(§2) The following are the desired concentrations:
(§3) 0, 10 nM, 100 nM, 500 nM, 1 μM, 2.5 μM, 5 μM, 10 μM, 15 μM, […], 30 μM. • 3. Approximately 72 hours later, 17 μL of 10% Glutaraldehyde is added to each well and plates are placed on a shaker for 20-30 minutes. • 4. Media is washed off the fixed cells by slow submersion in a container of water. Then the water is removed by tapping the plate upside down. • 5. 75 μL of Crystal Violet™ solution is added into the 96 well plates and placed on a shaker for ˜30 minutes. • 6. Media is washed off the fixed cells by repeated slow submersion in a container of water and the plates are allowed to dry over-night. • 7. Next day, 75 μL of Sorensen Solution is accurately pipetted into each well. The plates placed on a shaker for ˜30 minutes. • 8. Absorbance is measured in the plate at 590 nm.
Compounds that Show Specificity Towards 42D^ENZR Cells Vs 16D^CRPC Cells Progress to Step 4.
(§4) Where data is not available “na” is inserted.

[2] = Liver microsome metabolic stability, MLM; format: in vitro ADME; settings: MLM (single value or second of two), 1 μM compound, 0.25 mg/mL protein; for Met Stab % (60 mins HLM/MLM): percent remaining at 60 min, 1 mM NADPH; for half-life at 1 µM: mouse, liver microsomes, pH 7.4, read-out: T1/2 in (mins HLM/MLM)
Procedure: Potassium phosphate buffer (Kphos) was prepared by adding 0.647 g potassium phosphate monobasic (KH2PO4) and 3.527 g potassium phosphate dibasic ([…]) to 400 mL of Milli-Q water. pH of the buffer was adjusted to 7.4 and volume was made up to 500 mL.
Microsomes (20 mg/mL) were diluted in KH2PO4 buffer to prepare a concentration of 0.357 mg/mL.
Stock solutions of BRN2 inhibitors were prepared in DMSO at a concentration of 1 mM
A stock solution of 3.33 mM NADPH (3.33×) was prepared by dissolving appropriate amount of NADPH in KH2PO4 buffer.
Total Incubation volume: 100 μL
Compound concentration: 1 μM
Protein Concentration: 0.25 mg/mL
An 1120 μL aliquot of Kphos buffer (50 mM, pH 7.4) containing liver microsomes (0.357 mg/mL) were added to individual 2 mL tubes (final concentration 0.25 mg/mL). Test compounds (1 mM) and positive controls were directly spiked into respective tubes to prepare a concentration of 1.428 μM (final concentration 1 μM). From the above mix, 70 μL was added to individual wells of 96 well reaction plates and pre-incubated in a 37° C. water bath for 5 min. All the reactions were initiated by adding 30 μL of 3.33 mM NADPH (final concentration 1 mM). Reactions without NADPH and buffer controls (minus NADPH) at 0 min and 60 min were also incubated to rule out non-NADPH metabolism or chemical instability in the incubation buffer. All reactions were terminated using 100 μL of ice-cold acetonitrile containing internal standard at 0, 5, 15, 30 and 60 min. The plates were centrifuged at 4000 RPM for 15 min and 100 μL aliquots were submitted for analysis by LC-MS/MS.
Samples were monitored for parent compounds disappearance in MRM mode using LC-MS/MS.
The percent remaining of test compounds and positive control in each sample was determined by considering peak area ratio in the 0 minute sample as 100%. The Half-life of compounds in microsomes is calculated by formula:
Half-life (t½) (min)=0.693/k, where k is gradient of line determined from plot of peak area ratio (compound peak area/internal standard peak area) against time.
In vitro intrinsic clearance (CL'int) (units in mL/min/kg) was calculated using the formula.
[formula] • For liver microsomes, scaling factor used was 45 mg microsomal protein per gm liver. • Indicates liver weight (gm) which varies species wise. For mice the liver weights are 90 gm.
as §4

42D^ENZR cells = test: Cell proliferation (crystal violet), BRN2 expressing 42D^ENZR cells; format: cell-based; settings: 42D cells, approximately 72 hours
Procedure: as §1, §2, §3

| Structure (SMILES) | inhibition at 10 µM (BRN2) [%] | inhibition at 30 µM (BRN2) [%] | specificity [1] | Met Stab % (60 mins HLM/MLM) [2] [%] | half-life at 1 µM [2] [min] | IC50 (42D^ENZR cells) [µM] |
| --- | --- | --- | --- | --- | --- | --- |
| Cc1c(-c2csc(-c3ccccn3)n2)oc2ccccc12 [VPC-18-13] | 98.3 | 99.9 | VPC-18-13 (specific) |  |  |  |
| c1coc(-c2nc(-c3cc4ccccc4o3)cs2)c1 [VPC-18-14] | 95.9 | 96.6 | VPC-18-14 (specific) |  |  |  |
| c1ccc(-n2cc(-c3nc4ccccc4o3)cn2)cc1 [VPC-18-18] | 82.8 | 87 | VPC-18-18 (specific- affects 42D but not 16D) |  |  |  |
| Clc1ccc2cc(-c3csc(-c4ccco4)n3)oc2c1 [VPC-18-66, 4-(6-chlorobenzofuran-2-yl)-2-(furan-2-yl)thiazole] | 82 | 94 | VPC-18-66 (specific- no effect on LNCaP and 16D) | 31 | 42 |  |
| c1ccc2oc(-c3csc(-c4ccoc4)n3)cc2c1 [VPC-18-76, 4-(benzofuran-2-yl)-2-(furan-3-yl)thiazole] | 96.3 | 94.9 | VPC-18-76 (specific) | 1 | 9 |  |
| c1coc(-c2nc(-c3coc4ccccc34)cs2)c1 [VPC-18-81, 4-(benzofuran-3-yl)-2-(furan-2-yl)thiazole] | 97 | 99 | VPC-18-81 (specific to 42D) | 2 | 11 |  |
| c1coc(-c2ncc(-c3cc4ccccc4o3)s2)c1 [VPC-18-90, 5-(benzofuran-2-yl)-2-(furan-2-yl)thiazole] | 80 | 92 | VPC-18-90 (specific) | 0 | 8 |  |
| Clc1ccc2cc(-c3csc(-c4ccc[nH]4)n3)oc2c1 [VPC-18-94, 4-(6-chlorobenzofuran-2-yl)-2-(1H-pyrrol-2-yl)thiazole] | 79.6 | 86.9 | VPC-18-94 (specific no effect on LNCaP and 16D) | 21 | 27 |  |
| FC(F)(F)c1ccc2cc(-c3csc(-c4ccoc4)n3)oc2c1 [VPC-18-104, 2-(furan-3-yl)-4-(6-(trifluoromethyl)benzofuran-2-yl)thiazole] | 87.1 | 94.2 | VPC-18- 104 (specific 42D not 16D) | 1 | 10 |  |
| Clc1ccc2cc(-c3csc(-c4ccoc4)n3)oc2c1 [VPC-18-105, 4-(6-chlorobenzofuran-2-yl)-2-(furan-3-yl)thiazole] | 79.5 | 92 | VPC-18- 105 (specific 42D not 16D) | 1 | 10 |  |
| FC(F)(F)c1ccc2cc(-c3csc(-c4ccc[nH]4)n3)oc2c1 [VPC-18-108] | 84.4 | 92.6 | VPC-18- 108 (specific) | 15 | 31 |  |
| Cc1ccc2cc(-c3csc(-c4ccco4)n3)oc2c1 [VPC-18-110, 2-(furan-2-yl)-4-(6-methylbenzofuran-2-yl)thiazole] | 93.5 | 98.6 | VPC-18- 110 (specific) | 1 | 10 |  |
| Clc1ccc2cc(-c3csc(-c4cc[nH]c4)n3)oc2c1 [VPC-18-115] | 98 | 99 | VPC-18- 115 (specific) | 18 | 22 |  |
| Clc1ccc2cc(-c3coc(-c4ccc[nH]4)n3)oc2c1 [VPC-18-127, 4-(6-chlorobenzofuran-2-yl)-2-(1H-pyrrol-2-yl)oxazole] |  |  | VPC-18- 127 (specific) | 16 | 22 |  |
| Clc1ccc2cc(-c3nccc(-c4ccc[nH]4)n3)oc2c1 [VPC-18-133, 2-(6-chlorobenzofuran-2-yl)-4-(1H-pyrrol-2-yl)pyrimidine] |  |  | VPC-18- 133 (specific) | 1 | 8 |  |
| Cn1cccc1-c1nc(-c2cc3ccc(Cl)cc3o2)cs1 [VPC-18-139, 4-(6-chlorobenzofuran-2-yl)-2-(1-methyl-1H-pyrrol-2-yl)thiazole] |  |  | VPC-18- 139 (specific) | 23 | 30 |  |
| FC(F)(F)c1ccc2cc(-c3nccc(-c4ccc[nH]4)n3)oc2c1 [VPC-18-140, 4-(1H-pyrrol-2-yl)-2-(6-(trifluoromethyl)benzofuran-2-yl)pyrimidine] |  |  | VPC-18- 140 (specific) | 2 | 10 |  |
| Clc1ccc2cc(-c3nccc(-c4ccco4)n3)oc2c1 [VPC-18-141, 2-(6-chlorobenzofuran-2-yl)-4-(furan-2-yl)pyrimidine] |  |  | VPC-18- 141 (specific) | 3 | 13 |  |
| Clc1ccc2cc(-c3cccc(-c4ccc[nH]4)n3)oc2c1 [VPC-18-149] | 94.6 | 96.2 | not 16D | 21 | 30 | 1 |
| Cc1c(-c2csc(-c3ccc[nH]3)n2)oc2cc(Cl)ccc12 [VPC-18-155] |  |  | not 16D | 24 | 31 | 10 |
| Cn1c(-c2ccc(-c3ccccc3)o2)nc2ccccc21 [VPC-18] | 97.6 | 99.4 | VPC-18 (42D not 16D) |  |  |  |
